The source of these data is PMC11363738 (Journal of Enzyme Inhibition and Medicinal Chemistry, 2024).

Data set [1] in a line: Normal cytotoxicity test in Vero E6 cells, therapeutic model (Celltiter-Glo, CC plate). Conditions: African green monkey, Vero E6 cells (uninfected). On the technique in general: ATP-based viability assays read luminescence as a measure of living cells.
A further data set deals with SARS-CoV-2. Also on record: method as in PMID 34131140. Conditions: read-out: intracellular antiviral activity EC50; cited from earlier work.
Data set [2] has as its system rats and mice. Details: method as in PMID 12776572. The conditions noted are these: cited from earlier work.
For data set [3], the system named is rats and mice. The conditions noted are these: cited from earlier work.
Data set [4] concerns SARS-CoV-2 Omicron virus BA.5. Briefly: Antiviral activity in Vero E6 cells, preventive model (viral RNA by qRT-PCR). Format: cell-based. Conditions: Severe acute respiratory syndrome coronavirus 2, Vero C1008; read-out: EC50 (concentration for 50% reduction in viral infectivity), preventive model.
Data set [5] has as its system rats and mice. Details: method as in earlier work. The conditions noted are these: cited from earlier work.
In data set [6] the test system is SARS-CoV-2 Omicron virus BA.5. Briefly: microbe, parasite or virus in culture. It is filed as cell-based. The conditions noted are these: for EC50: Severe acute respiratory syndrome coronavirus 2, Vero C1008, 96 h, ND = not detectable, inactive at 10 μM, mean ± SD, read-out: EC50, therapeutic model.
A short description of data set [7]: Cytotoxicity against Vero E6 cells, CCK-8 assay (preventive model). The conditions noted are these: African green monkey. On the technique in general: Tetrazolium dyes change colour on reduction, which living cells bring about.
A further data set addresses T1, SARS-CoV-2 3CL^pro (Severe acute respiratory syndrome coronavirus 2, UniProt P0DTD1).
T1 construct: purchased Beyotime, China P0315M
Put plainly: SARS-CoV-2 3CLpro FRET activity assay (Beyotime inhibitor screening kit). Conditions: for IC50: FRET assay, averages of three independent experiments; for inhibition at 1 µM: n = 3, read-out: rate of inhibiting SARS-CoV-2 3CL^pro. It is filed as biochemical.

The nature of data set [8]: in vitro. The conditions noted are these: African green monkey.
Data set [9] is described as follows: in vitro. Conditions: African green monkey. This is another data set of the same source.

Take `O=C1c2c(O)cc(O)cc2O[C@H](c2cc(O)c(O)c(O)c2)[C@H]1O` [Compound 1, Dihydromyricetin]: the CC50 at 4 days in data set [1] was > 100 µM. Besides, the EC50 in the data set with SARS-CoV-2 is 13.6 µM; in data set [4], 21.2 ± 0.62 µM. Besides, the “result in long-term toxicity tests” value with rats and mice [2] was “negative”. Besides, the “result in acute oral toxicity tests” value in the data set with rats and mice [3] is given as “negative”. In addition, the “result in genotoxicity tests” value in the data set with rats and mice [5] is listed as “negative”. In data set [6], the “inhibitory activity against Omicron virus, therapeutic model” value is “did not have significant inhibitory activity”. Moreover, the CC50 at 24 h in data set [7] is > 100 µM.
On to `O=c1c(O)c(-c2cc(O)c(O)c(O)c2)oc2cc(O)cc(O)c12` [Compound 2, Myricetin], for which, in data set [1], the CC50 at 4 days is > 100 µM. Besides, the EC50 in data set [4] came to 12.2 ± 0.23 µM. In addition, in data set [6], the “inhibitory activity against Omicron virus, therapeutic model” value is given as “did not have significant inhibitory activity”. Besides, the CC50 at 24 h in [7] is > 100 µM.
Regarding `COC(=O)COc1cc(O)c2c(=O)c(O)c(-c3cc(O)c(O)c(O)c3)oc2c1` [Compound 3, Methyl 2-((3,5-dihydroxy-4-oxo-2–(3,4,5-trihydroxyphenyl)-4H-chromen-7yl)oxy)acetate], on SARS-CoV-2 3CL^pro, the IC50 (commonly the point on the concentration scale where inhibition reaches its midpoint) amounted to 0.72 ± 0.04 µM and the inhibition at 1 µM is > 50%. Further, the CC50 in the data set “in vitro [8]” is > 100 µM. Besides, the EC50 in data set [4] was determined as 15.8 ± 0.92 µM. The CC50 in the data set “in vitro [9]” was > 100 µM.
Regarding `COC(=O)CCCOc1cc(O)c2c(=O)c(O)c(-c3cc(O)c(O)c(O)c3)oc2c1` [Compound 4, Methyl4-((3,5-dihydroxy-4-oxo-2–(3,4,5-trihydroxyphenyl)-4H-chromen-7-yl)oxy)butano-ate], half-maximal inhibition against SARS-CoV-2 3CL^pro (IC50) required 1.26 ± 0.09 µM.
Take `COC(=O)CCCCCOc1cc(O)c2c(=O)c(O)c(-c3cc(O)c(O)c(O)c3)oc2c1` [Compound 5, Methyl 6-((3,5-dihydroxy-4-oxo-2–(3,4,5-trihydroxyphenyl)-4H-chromen-7-yl)oxy) hexano-ate]: it took 1.69 ± 0.16 µM to reach half-maximal inhibition on SARS-CoV-2 3CL^pro (IC50). Besides, the CC50 in “in vitro [8]” and in the data set “in vitro [9]” was > 100 µM throughout. Besides, the EC50 in [4] worked out at 37.6 ± 2.05 µM.
As to `CCOC(=O)COc1cc(O)c2c(=O)c(O)c(-c3cc(O)c(O)c(O)c3)oc2c1` [Compound 6, Ethyl 2-((3,5-dihydroxy-4-oxo-2–(3,4,5-trihydroxyphenyl)-4H-chromen-7-yl)oxy)acetate], at SARS-CoV-2 3CL^pro, 0.95 ± 0.12 µM corresponded to half-maximal inhibition (IC50) and the inhibition at 1 µM was > 50%.
On to `CCOC(=O)CCCOc1cc(O)c2c(=O)c(O)c(-c3cc(O)c(O)c(O)c3)oc2c1` [Compound 7, Ethyl 4-((3,5-dihydroxy-4-oxo-2–(3,4,5-trihydroxyphenyl)-4H-chromen-7-yl)oxy)butano-ate], for which the half-inhibitory concentration (IC50) at SARS-CoV-2 3CL^pro was 1.53 ± 0.14 µM.
Still for that read-out and setting: with `CCOC(=O)CCCCCOc1cc(O)c2c(=O)c(O)c(-c3cc(O)c(O)c(O)c3)oc2c1` [Compound 8, Ethyl 6-((3,5-dihydroxy-4-oxo-2–(3,4,5-trihydroxyphenyl)-4H-chromen-7-yl)oxy)hexane-ate] the figure was 1.73 ± 0.11 µM; with `CCOC(=O)CCCCCCOc1cc(O)c2c(=O)c(O)c(-c3cc(O)c(O)c(O)c3)oc2c1` [Compound 9, Ethyl 7-((3,5-dihydroxy-4-oxo-2–(3,4,5-trihydroxyphenyl)-4H-chromen-7-yl)oxy)heptano-ate], 1.68 ± 0.19 µM.
Regarding `CCOC(=O)CCCCCCCOc1cc(O)c2c(=O)c(O)c(-c3cc(O)c(O)c(O)c3)oc2c1` [Compound 10, Ethyl 8-((3,5-dihydroxy-4-oxo-2–(3,4,5-trihydroxyphenyl)-4H-chromen-7-yl)oxy)octan-oate], the IC50 on SARS-CoV-2 3CL^pro stood at 2.36 ± 0.13 µM. The EC50 is 46.1 ± 4.67 µM in data set [4] and 11.5 ± 3.68 µM in data set [6].
With `CCC(CC)COC(=O)[C@H](C)N[P@](=O)(OC[C@H]1O[C@@](C#N)(c2ccc3c(N)ncnn23)[C@H](O)[C@@H]1O)Oc1ccccc1` [Remdesivir], the CC50 at 4 days in [1] worked out at 49.7 ± 0.13 µM. For the same compound, the EC50 in [4] turned out to be 0.64 ± 0.12 µM; in data set [6], 0.91 ± 0.39 µM. For the same compound, the CC50 at 24 h in [7] is > 100 µM.
